# From paper PMC10993126, “Capture of endogenous lipids in peptidiscs and effect on protein stability and activity” (iScience, 2024)
# What was measured:
# [1] = tested on: T1, SecYEG (HD-SecYEG; PD-SecYEG-CL); assay: CL added before peptidisc reconstitution; SecA ATPase by Malachite green; SecA binding by clear-native PAGE; type: biochemical, Escherichia coli; settings: 20:1 lipid to SecYEG molar ratio; with SecA; 1 mM ATP, 10 mM MgCl2, pH 8.8, 37°C; lipid activator
# T1 construct: gene secY; read out with SecA; with Protein translocase subunit SecA
# [2] = biological target: the molecule itself; assay: native gel or EMSA; 5-13% native PAGE with Coomassie staining of the DDM-MsbA and peptidisc-MsbA preparations (DDC, DLW, DHW)
# T1 sequence (P0AG96 whole entry): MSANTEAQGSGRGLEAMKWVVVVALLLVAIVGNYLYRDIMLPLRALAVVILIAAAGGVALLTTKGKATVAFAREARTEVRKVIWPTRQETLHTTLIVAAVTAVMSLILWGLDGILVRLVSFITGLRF
# T1 sequence (P0AGA2 whole entry, further chain): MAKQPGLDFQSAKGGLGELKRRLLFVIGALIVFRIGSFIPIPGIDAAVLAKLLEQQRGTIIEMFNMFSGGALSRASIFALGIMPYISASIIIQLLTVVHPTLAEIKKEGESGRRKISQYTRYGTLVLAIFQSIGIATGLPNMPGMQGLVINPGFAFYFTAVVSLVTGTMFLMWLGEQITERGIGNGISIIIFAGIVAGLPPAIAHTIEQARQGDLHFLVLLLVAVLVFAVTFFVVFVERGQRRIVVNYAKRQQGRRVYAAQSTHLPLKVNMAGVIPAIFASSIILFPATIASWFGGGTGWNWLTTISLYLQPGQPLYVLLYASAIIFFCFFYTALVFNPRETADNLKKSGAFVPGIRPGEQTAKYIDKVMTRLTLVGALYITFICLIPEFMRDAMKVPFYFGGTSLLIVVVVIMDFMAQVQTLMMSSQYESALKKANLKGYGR
# T1 sequence (P10408 whole entry, further chain): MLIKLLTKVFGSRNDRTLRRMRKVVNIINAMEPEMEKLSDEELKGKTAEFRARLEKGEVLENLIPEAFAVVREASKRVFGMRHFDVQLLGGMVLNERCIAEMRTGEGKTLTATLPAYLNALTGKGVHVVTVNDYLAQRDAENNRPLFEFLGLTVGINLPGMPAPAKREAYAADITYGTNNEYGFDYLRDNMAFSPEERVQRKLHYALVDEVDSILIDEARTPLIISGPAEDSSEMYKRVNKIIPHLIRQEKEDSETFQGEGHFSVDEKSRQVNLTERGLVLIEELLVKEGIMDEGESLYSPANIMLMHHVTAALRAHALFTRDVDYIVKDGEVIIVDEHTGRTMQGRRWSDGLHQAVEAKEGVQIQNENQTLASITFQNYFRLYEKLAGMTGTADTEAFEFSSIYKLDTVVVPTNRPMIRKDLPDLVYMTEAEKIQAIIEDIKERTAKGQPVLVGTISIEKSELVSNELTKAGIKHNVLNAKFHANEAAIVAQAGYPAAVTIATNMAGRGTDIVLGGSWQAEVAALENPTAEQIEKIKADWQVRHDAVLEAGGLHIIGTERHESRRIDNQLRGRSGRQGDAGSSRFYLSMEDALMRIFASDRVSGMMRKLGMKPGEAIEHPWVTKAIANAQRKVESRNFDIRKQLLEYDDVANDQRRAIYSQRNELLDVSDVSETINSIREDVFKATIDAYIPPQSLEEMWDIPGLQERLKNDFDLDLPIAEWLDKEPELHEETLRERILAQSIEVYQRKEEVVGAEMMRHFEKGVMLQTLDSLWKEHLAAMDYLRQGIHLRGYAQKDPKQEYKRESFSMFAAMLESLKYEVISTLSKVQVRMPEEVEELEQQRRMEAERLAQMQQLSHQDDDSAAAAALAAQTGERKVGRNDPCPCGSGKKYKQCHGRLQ
# T1 sequence (P0AG99 whole entry, further chain): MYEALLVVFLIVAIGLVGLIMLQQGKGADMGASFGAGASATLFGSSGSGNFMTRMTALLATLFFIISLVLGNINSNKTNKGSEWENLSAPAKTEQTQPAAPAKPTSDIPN
fold increase in SecA ATPase activity [1],Molecule,stoichiometry N [2]
~ 4 fold,"CCCCCCCC/C=C\CCCCCCCC(=O)O[C@H](COC(=O)CCCCCCCCCCCCCCC)COP(=O)(O)OCC(O)COP(=O)(O)OC[C@@H](COC(=O)CCCCCCCCCCCCCCC)OC(=O)CCCCCCC/C=C\CCCCCCCC (some centres unmarked) [CL, 1',3'-bis[1-palmitoyl-2-oleoyl-sn-glycero-3-phospho]-glycerol]",
,"His6-tagged MsbA (natural protein, UniProt P60752 1-582, looked up, The same protein was prepared with different amounts of endogenous lipid (DDC, DLW, DHW in peptidisc; DDM in detergent); also called DDC-MsbA; DLW-MsbA; source: E. coli BL21(DE3), membranes solubilized with DDM, purified (Ni-NTA), reconstituted in peptidiscs or kept in DDM) MHNDKDLSTWQTFRRLWPTIAPFKAGLIVAGVALILNAASDTFMLSLLKPLLDDGFGKTDRSVLVWMPLVVIGLMILRGITSYVSSYCISWVSGKVVMTMRRRLFGHMMGMPVSFFDKQSTGTLLSRITYDSEQVASSSSGALITVVREGASIIGLFIMMFYYSWQLSIILIVLAPIVSIAIRVVSKRFRNISKNMQNTMGQVTTSAEQMLKGHKEVLIFGGQEVETKRFDKVSNRMRLQGMKMVSASSISDPIIQLIASLALAFVLYAASFPSVMDSLTAGTITVVFSSMIALMRPLKSLTNVNAQFQRGMAACQTLFTILDSEQEKDEGKRVIERATGDVEFRNVTFTYPGRDVPALRNINLKIPAGKTVALVGRSGSGKSTIASLITRFYDIDEGEILMDGHDLREYTLASLRNQVALVSQNVHLFNDTVANNIAYARTEQYSREQIEEAARMAYAMDFINKMDNGLDTVIGENGVLLSGGQRQRIAIARALLRDSPILILDEATSALDTESERAIQAALDELQKNRTSLVIAHRLSTIEKADEIVVVEDGVIVERGTHNDLLEHRGVYAQLHKMQFGQ",2
